Test results: publication PMC8387043, “Host Poly(A) Polymerases PAPD5 and PAPD7 Provide Two Layers of Protection That Ensure the Integrity and Stability of Hepatitis B Virus RNA” (Journal of Virology, 2021)
Read-outs that look alike come from different tables or passages of the source.

Assays:
[1] = biological target: T1, recombinant human PAPD5 (Homo sapiens, UniProt Q8NDF8); assay: PAPD5 ATP depletion assay; assay type: biochemical; conditions: truncated recombinant human PAPD5, ATP depletion
T1 construct: PAPD5 (amino acids 186 to 518; XM_011523275); 10xHis (N); Flag (N); TEV cleavage site (N); host or cells: E. coli BL21(DE3), vector pET-24a(+)
T1 sequence (Q8NDF8 106-438 limits assumed): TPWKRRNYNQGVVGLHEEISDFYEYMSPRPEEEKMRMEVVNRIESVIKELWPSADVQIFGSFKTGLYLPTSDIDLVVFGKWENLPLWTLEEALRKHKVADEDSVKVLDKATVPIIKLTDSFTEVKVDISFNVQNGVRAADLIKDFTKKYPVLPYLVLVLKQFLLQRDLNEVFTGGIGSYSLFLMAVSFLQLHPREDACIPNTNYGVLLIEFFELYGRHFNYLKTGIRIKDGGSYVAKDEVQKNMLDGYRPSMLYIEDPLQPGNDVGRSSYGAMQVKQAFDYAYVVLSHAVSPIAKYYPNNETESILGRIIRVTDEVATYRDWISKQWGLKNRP
Experimental: (§1) Molecular cloning, expression, and purification of the recombinant human PAPD5 and PAPD7 proteins were performed at Xtal BioStructures (MA, USA). PAPD5 (amino acids 186 to 518; GenBank accession no. XM_011523275) and PAPD7 (amino acids 226 to 558; GenBank accession no. NM_006999.6) genes comprising of nucleotidyltransferase and PAP-associated domains were codon optimized, synthesized, and inserted in the expression vector pET-24a(+) for E. coli expression with 10×His-Flag-tobacco etch virus (TEV) tags at the N terminus. The pET-24a(+) constructs were transformed into E. coli-competent cells BL21(DE3). […] Expression of protein was induced for 16 h with 0.2 mM IPTG (isopropyl-β-D-thiogalactopyranoside) at 18°C. […] Roche). Cell suspension was sonicated 8 × 20 s at 27 to 30 W (power level, 3.5 to 4.0) with 40-s breaks between each pulse. Lysate was cleared by centrifugation in a 50-ml conical tube at 20,000 × g for 30 min (Fiberlite F13-14 × 50cy rotor in a Sorvall RC6 centrifuge). Supernatant was incubated with Ni-charged MagBeads (GenScript; catalog no. […] Bound proteins were washed with 50 ml binding buffer and eluted in elution buffer containing a gradient of imidazole ranging from 5 to 500 mM. Peak fractions were pooled and stored in 50% glycerol at -80°C. Reactions were carried out in duplicate in 96-well low-profile, skirted, white plates (catalog no. AB0800WL; […] The reaction mixtures were incubated at room temperature for 3 h, and ATP depletion was monitored by using Kinase-Glo luminescent kinase kit following the manufacturer's instructions (catalog no. V6712; Promega, WI, USA).

[2] = biological target: T2, recombinant human PAPD7 (Homo sapiens, UniProt Q5XG87); assay: PAPD7 ATP depletion assay; assay type: biochemical
T2 construct: PAPD7 (amino acids 226 to 558; NM_006999.6); 10xHis (N); Flag (N); TEV cleavage site (N); host or cells: E. coli BL21(DE3), vector pET-24a(+)
T2 sequence (Q5XG87 226-558): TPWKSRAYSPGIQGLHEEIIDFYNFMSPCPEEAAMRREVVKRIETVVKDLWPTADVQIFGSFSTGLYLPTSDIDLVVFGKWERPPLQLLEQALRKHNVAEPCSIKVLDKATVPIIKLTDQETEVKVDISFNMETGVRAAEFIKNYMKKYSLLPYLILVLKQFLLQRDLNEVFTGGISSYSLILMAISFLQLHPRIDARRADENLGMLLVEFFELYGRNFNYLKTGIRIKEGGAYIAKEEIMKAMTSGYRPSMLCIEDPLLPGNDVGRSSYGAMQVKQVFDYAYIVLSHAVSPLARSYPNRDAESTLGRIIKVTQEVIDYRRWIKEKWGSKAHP
Experimental: as §1

[3] = system: HBV; assay: Antiviral assay in HepG2.2.15 cells (HBsAg/HBeAg CLIA, secreted HBV DNA qPCR); assay type: cell-based, hepatitis B virus
[4] = system: HBV PRE; assay: HBV PRE cis-element reporter plasmids (HBsAg or Gluc) transfected in Huh-7 cells; conditions: Hepatitis B virus
[5] = system: HBV; assay: HBsAg inhibition in PLC/PRF/5 cells; assay type: cell-based; conditions: Hepatitis B virus
Experimental: AB-452 and RG7834 both belong to the dihydroquinolizinones chemical class. The antiviral activities of AB-452 and its diastereomer ARB-169451 were evaluated using multiple in vitro HBV replication models, including HepG2.2.15 cells (which constitutively express HBV through the integrated viral genome), PLC/PRF/5 cells (a patient-derived hepatocellular carcinoma cell line only expressing HBsAg), and HBV-infected HepG2-NTCP cells or primary human hepatocytes (PHHs) in which viral replication was dependent on cccDNA transcription (Table 1).
HepG2.2.15, HepAD38, and PLC/PRF/5 cells were cultured in Dulbecco’s modified Eagle medium (DMEM)/F12 medium (Corning, NY, USA), supplemented with 10% fetal bovine serum (Gemini, CA, USA), 100 U/ml penicillin, and 100 μg/ml streptomycin. Huh-7 cells (Creative Bioarray, NY, USA) were cultured in RPMI 1640 medium (Basel, Switzerland) containing 10% fetal bovine serum, 100 U/ml penicillin, and 100 μg/ml streptomycin. HepG2-hNTCP-C4 cells were cultured in DMEM medium (Gibco, MA, USA) containing 10% fetal bovine serum and 10 mM HEPES (Gibco).

[6] = system: HBV; assay: HBV replication intermediates and viral proteins in HepG2.2.15 cells (Northern, Western, particle gel, Southern); assay type: cell-based, hepatitis B virus; conditions: HepG2.2.15, 6 days; ETV, GLS-4, cmpdA 1 μM; AB-452 70 nM
Experimental: Total cellular RNA was extracted from HepG2.2.15 or HepAD38 cells treated with or without antiviral compounds using TRIzol reagent according to the manufacturer's directions (Thermo Fisher Scientific, Waltham, MA). Northern blotting was performed as described previously ([1]). Briefly, total RNA was separated in a 1.5% agarose gel and transferred onto an Amersham Hybond-XL membrane (product no. GERPN303S; GE Healthcare, IL, USA). Membranes were probed with an [α-^32P]UTP (PerkinElmer, CT, USA)-labeled minus strand-specific full-length HBV riboprobe (3.2 kb) transcribed from plasmid pSP65_HBV(+) DNA. Membranes were exposed to a phosphoimager screen, and the hybridization signals were quantified using Image Studio software (Li-Cor Biosciences, NE, USA).
Total intracellular viral core-associated DNA was extracted as described previously ([1]) and analyzed by Southern blotting hybridization with an [α-^32P]UTP-labeled full-length HBV riboprobe (3.2 kb) that specifically hybridized to minus strand of viral DNA. Membranes were exposed to a phosphoimager screen, and the hybridization signals were quantified using Image Studio software.
HepG2.2.15 or HepAD38 cells cultured in a 12-well plate were lysed with 200 μl Laemmli sample buffer (Bio-Rad, PA, USA) supplemented with 2.5% 2-mercaptoethanol (Sigma-Aldrich, MO, USA). […]

[7] = system: HBsAg; assay: HBsAg inhibition in adenovirus-HBsAg-transduced HepG2-NTCP WT and KO clones; assay type: cell-based, hepatitis B virus; conditions: for EC50: HBsAg, read-out: Adeno infection EC50
[8] = system: PAPD5; set-up: method as in PMID 31801065; conditions: read-out: PAPD5 IC50 previously reported; cited from earlier work

Question: Which results are given for `COCCCOc1cc2c(nc1OC)-c1cc(=O)c(C(=O)O)cn1[C@@H](C(C)C)C2` [ARB-169451]?
Answer: IC50 [1]: 27 µM; IC50 [2]: > 50000 nM; fold weaker toward HBsAg inhibition than AB-452 [3]: more than 1,000 fold; EC50 ([3]; Hepatitis B virus, HepG2.2.15 cells, read-out: HBsAg EC50): 2230 nM; EC50 ([4]; 120 h, read-out: EC50, Gluc_dHBx (Gluc activity)): > 100 nM; EC50 ([4]; 120 h, read-out: EC50, H133_Gluc (Gluc activity)): > 100 nM; EC50 ([4]; Huh-7, 120 h, read-out: EC50, Gluc_rcSLα (Gluc activity)): > 100 nM; EC50 ([4]; Huh-7, 120 h, read-out: EC50, H133 (HBsAg)): > 100 nM; EC50 ([4]; Huh-7, 120 h, read-out: EC50, H133_dLa (HBsAg)): > 100 nM; EC50 ([4]; Huh-7, 120 h, read-out: EC50, H133_dSLα (HBsAg)): > 100 nM; EC50 [5]: > 100 nM

Question: For `C=C1[C@H](CO)[C@@H](O)C[C@@H]1n1cnc2c(=O)[nH]c(N)nc21` [ETV, entecavir, reference compound], which “Effect on HBV replication intermediates and viral proteins” value [6] is on record?
Answer: strongly inhibited HBV DNA replication but did not reduce the production of intracellular HBV RNA, core protein levels, or capsid assembly

Question: Which results are given for `COCCCOc1cc2c(cc1OC)-c1cc(=O)c(C(=O)O)cn1[C@H](C(C)C)C2` [RG7834, reference compound]?
Answer: IC50 [1]: 0.167 µM; IC50 [2]: 1090 nM; Adeno infection FC vs WT ([7]; P5_KO (T3-4)): 10.7; EC50 ([7]; P5_KO (T3-4)): 126 ± 74.7 nM; Adeno infection FC vs WT ([7]; P5_KO (T3-15)): 7.3; EC50 ([7]; P5_KO (T3-15)): 85.7 ± 59.8 nM; Adeno infection FC vs WT ([7]; P7_KO (T2-8)): 2.0; EC50 ([7]; P7_KO (T2-8)): 23.7 ± 15.2 nM; Adeno infection FC vs WT ([7]; P7_KO (T2-22)): 0.9; EC50 ([7]; P7_KO (T2-22)): 10.8 ± 2.1 nM; Adeno infection FC vs WT ([7]; WT (parent)): 1; EC50 ([7]; WT (parent) HepG2-NTCP): 11.8 ± 9.6 nM; IC50 [8]: 1.3 nM
